Patent US8466309B2, “Amino acid derivatives, method for preparing same, and therapeutic use thereof” (priority 2008, dated 2013)

Legend:
Format in all cases: in vivo
[1] = system: male OF1 mice; experiment: Von Frey test: mechanical allodynia after partial ligature of the sciatic nerve; settings: oral 50 mg/kg, maximum at 60 min, day 14 post-surgery
Description: (§1) This test was described in detail by A. B. Malmberg and A. I. Basbaum, Partial sciatic nerve injury in the mouse as a model of neuropathic pain: behavioural and neuroanatomical correlates. Pain, (1998) 76, 215-222.
(§2) It was conducted on male OF1 mice (Charles River), of 18-20 g, n=39, by partial ligature of the sciatic nerve on the ipsilateral side. The animals are tested in the period (3-26 days) after the operation.
Measurement of hyperalgesia was carried out according to the method described by K. Hargreaves et al., A new sensitive method for measuring thermal nociception in cutaneous hyperalgesia, Pain, (1988), 32, 77-88, by using as a heat source, the “Plantar test” apparatus (Bioseb, France). The intensity of the nociceptive stimulus is calibrated to 8-10 s with an automatic stopping threshold (cut-off time) at 20 s. The average of the withdrawals of the paw induced by the heat, was measured on the ipsilateral paws (damaged nerve) and contralateral paws (intact nerve). […] Mechanical allodynia is measured as described by S. R. Chaplan et al., Quantitative assessment of tactile allodynia in the rat paw, J. Neurosci. […] The mechanical antiallodynic effect is measured by the method of Von Frey with filaments of increasing size exerting also increasing pressure.
The effect of the compound of Example 10 on mechanical allodynia is measured by the Von Frey test. […]

[2] = system: male OF1 mice; experiment: Plantar test: thermal hyperalgesia after partial ligature of the sciatic nerve
Description: as §1, §2
Measurement of hyperalgesia was carried out according to the method described by K. Hargreaves et al., A new sensitive method for measuring thermal nociception in cutaneous hyperalgesia, Pain, (1988), 32, 77-88, by using as a heat source, the “Plantar test” apparatus (Bioseb, France). The intensity of the nociceptive stimulus is calibrated to 8-10 s with an automatic stopping threshold (cut-off time) at 20 s. The average of the withdrawals of the paw induced by the heat, was measured on the ipsilateral paws (damaged nerve) and contralateral paws (intact nerve). This measurement was carried out 3 times on each paw. Mechanical allodynia is measured as described by S. R. Chaplan et al., Quantitative assessment of tactile allodynia in the rat paw, J. Neurosci. Meth. (1994), 53, 55-63. The ipsilateral (lesion) and contralateral (control) paws are tested as earlier. The mechanical antiallodynic effect is measured by the method of Von Frey with filaments of increasing size exerting also increasing pressure.
FIG. 3: Neuropathic pain model: partial ligature of the sciatic nerve (mice). Response generated by per os administration of the carrier (□) or of the compound of Example 10 (▪): removal of the paw (in second) versus time (in minutes).
Carrier: EtOH/0.5% methylcellulose (1.5/98.5)
Tests carried out at day 14 post-surgery; ipsilateral paw
Abscissa: time in minutes, ordinate: withdrawal of the paw in seconds
Plantar test: evaluation of thermal hyperalgia
Average of the contralateral paws: compound 10 at 90 min=8.3 s.

[3] = system: male OF1 mice; experiment: Formalin test (phase I), number of paw lickings after oral administration; settings: 120 minutes after administration (FIG. 2)
From the text: A/Formalin Test (Phase I) […]
The animals (male OF1 mice) come from the Charles River breeder (France) and weigh 25-35 g at the beginning of the experiment. The weight of each mouse is taken into account for administering the product.
The test is based on the procedure described by S. HUNSKAAR et al., Formalin test in mice, a useful technique for evaluating mild analgesics, J. Neurosci. Methods […], 14, 69-75.
The mice (n=8) are individually placed in a transparent enclosure (50×25 cm) and become accustomed to this environment for 20 minutes. After this period, 20 μL of formalin (5% HCHO) in solution in saline solution (H2O, 0.9% NaCl), are injected subcutaneously on the plantar face of the right paw of the animal. A 26 syringe connected to a microsyringe is used. Each mouse is then immediately placed back into the test enclosure and pain (nociceptive) responses are measured for 5 minutes (early phase). Only the lickings of the paw are counted. […]
The analgesic action of the product is measured by the decrease in the number of lickings of the lesioned paw, as compared with the number of lickings of the animal which has received the carrier alone. […]

| Compound | anti-allodynic effect, maximum, as % of the maximum response (non-treated control) [1] [%] | withdrawal of the paw, average of the contralateral paws ([2]; 50 mg/kg, at 90 min, intact nerve side) [s] | maximum effect on thermal hyperalgesia ([2]; p.o. 50 mg/kg, at 80 min) [%] | withdrawal of the paw (ipsilateral paw) ([2]; p.o. 50 mg/kg, at 80 min, plantar test, day 14 post-surgery) [s] | decrease of thermal hyperalgesia induced by partial ligature of the sciatic nerve ([2]; p.o. 50 mg/kg, period from 45 to 150 min, day 14 post-surgery, ipsilateral paw) | analgesic activity at 120 minutes [3] |
| --- | --- | --- | --- | --- | --- | --- |
| CSCCC(CSSCC(Cc1ccccc1)C(=O)NCC(=O)O)NC(=O)OC(C)OC(=O)C(C)C (stereo not drawn) [Example 10, 1-{1-[2-(carboxymethyl-carbamoyl)-3-phenyl-propyl-disulfanylmethyl]-3-methylsulfanyl-propylcarbamoyl-oxy}-ethyl isobutyric acid ester] | 75 | 8.3 | 100 | 8.2 ± 0.9 | 65-100% |  |
| NH2—CH(CH2CH2SCH3)—CH2—S—S—CH2—CH(CH2C6H5)—CONH—CH2—CONH—CO—CH(CH3)—O—CO—OCH2CH3 [Compound 15] |  |  |  |  |  | no longer has any activity |
